This note sets out measurements from ChEMBL document CHEMBL5247581, “Design, synthesis and biological evaluation of new quinazolinone-benzopyran-indole hybrid compounds promoting osteogenesis through BMP2 upregulation” (Eur J Med Chem, 2022).

The structures appear in SMILES notation. Activity calls are given as the source filed them. The rule behind the calls is not given here.

Series [1] relates to Calvarial osteoblast. In words: Induction of osteogenesis in mouse Osteoblast cells assessed as ALP activity at 0.001 to 100 uM measured for 24 to 48 hrs. Type of series: functional. As to conditions: dose 0.001-100 µM, time 24-48 hrs.
The test system of series [2] is Calvarial osteoblast. In words: Cytotoxicity against mouse Osteoblast cells assessed as reduction in cell viability at 0.000001 to 1 uM measured for 24 to 48 hrs by MTT assay. It is filed as toxicity, cell-based. The settings on record: dose lower 1e-06 µM, time lower 24 hrs, dose upper 1 µM, time upper 48 hrs.
The subject of series [3] is Calvarial osteoblast. In words: Induction of osteoblast differentiation in mouse calvarial osteoblasts cells assessed as ALP activity at 1 to 10000 pM measured for 7 days. Type of series: functional, cell-based. The settings on record: dose 1-10000 pM, time 7.0 day.
In series [4] the test system is Calvarial osteoblast. In words: Induction of osteogenesis in mouse Osteoblast cells assessed as ALP activity at 100 pM measured for 48 hrs. Type of series: functional, cell-based.
The test system of series [5] is Calvarial osteoblast. In words: Induction of osteogenesis in mouse Osteoblast cells assessed as ALP activity at 0.001 to 100 uM measured for 48 hrs. It is filed as functional, cell-based. The settings on record: dose 0.001-100 µM.
In series [6] the test system is Calvarial osteoblast. In words: Cytotoxicity against mouse Osteoblast cells assessed as reduction in cell viability at 100 uM measured for 24 to 48 hrs by MTT assay. It is filed as toxicity, cell-based. The settings on record: time 24-48 hrs. (Tetrazolium assays rely on reduction of a dye to a coloured formazan, in cell work by metabolically active cells.)
The test system of series [7] is Calvarial osteoblast. In words: Induction of osteogenesis in mouse Osteoblast cells assessed as ALP activity at 0.001 to 100 uM measured for 24 hrs. The settings on record: dose 0.001-100 µM. Type of series: functional, cell-based.
Series [8] concerns Calvarial osteoblast. In words: Induction of osteogenesis in mouse Osteoblast cells assessed as fold increase in RUNX2 gene expression at 100 to 10000 pM by qRT-PCR analysis. Type of series: functional. As to conditions: dose 100-10000 pM. (In qPCR the cycle at which signal appears reflects the starting amount.)
Series [9] in a line: Induction of osteoblast mineralization in mouse Bone marrow cells assessed as increase in mineralized nodule formation at 100 pM replaced with media every 48 hrs for 21 days by Alizarin Red staining-based microscopic analysis. As to conditions: time 21 day. It is filed as functional, Bone marrow cell.
For series [10], the system named is Calvarial osteoblast. In words: Induction of osteoblast differentiation in mouse calvarial osteoblasts cells assessed as ALP activity at 100 to 10000 pM measured for 7 days. As to conditions: dose 100-10000 pM, time 7.0 day. It is filed as functional, cell-based.
Series [11] in a line: Induction of osteoblast mineralization in mouse Bone marrow cells assessed as increase in mineralized nodule formation at 10 nM replaced with media every 48 hrs for 21 days by Alizarin Red staining-based microscopic analysis. Type of series: functional, Bone marrow cell. The settings on record: time 21 day.
For series [12], the system named is Calvarial osteoblast. In words: Induction of osteogenesis in mouse Osteoblast cells assessed as ALP activity at 10 nM measured for 48 hrs. It is filed as functional, cell-based.
The test system of series [13] is Calvarial osteoblast. In words: Induction of osteogenesis in mouse Osteoblast cells assessed as ALP activity at 1 to 1000 pM measured for 24 to 48 hrs. As to conditions: dose 1-1000 pM, time 24-48 hrs. It is filed as functional, cell-based.
Series [14] deals with Calvarial osteoblast. In words: Induction of osteogenesis in mouse Osteoblast cells assessed as ALP activity at 10 nM measured for 24 to 48 hrs. It is filed as functional, cell-based. The settings on record: time 24-48 hrs.
Series [15] concerns Calvarial osteoblast. In words: Induction of osteogenesis in mouse Osteoblast cells assessed as ALP activity at 100 to 1000000 pM measured for 24 to 48 hrs. It is filed as functional, cell-based. The settings on record: dose 100-1e+06 pM, time 24-48 hrs.

Take `CCc1cc(-c2nc3ccccc3c(=O)n2C)cc2c1OC(N)=C(C#N)C2c1c(C)[nH]c2ccccc12` (configuration not stated): in the series on Calvarial osteoblast [1], the Activity came out at 7%.

Consider `Cc1cc(-c2nc3ccccc3c(=O)n2C)cc2c1OC(N)=C(C#N)C2c1c(C)[nH]c2ccc(Cl)cc12` (configuration not stated), for which the Activity result in the series on Calvarial osteoblast [2] is “Non-Toxic”; with Calvarial osteoblast [1] it was 25%; in the series with Calvarial osteoblast [6] it was “Toxic”. Moreover, the outcome in the series with Calvarial osteoblast [3] and with Calvarial osteoblast [7] was inactive. Moreover, the result in the series with Calvarial osteoblast [4] and in the series on Calvarial osteoblast [5] was Active.

As to `CCCc1cc(-c2nc3ccccc3c(=O)n2C)cc2c1OC(N)=C(C#N)C2c1c(C)[nH]c2ccc(OC)cc12` (configuration not stated), the Activity in the series with Calvarial osteoblast [1] worked out at 11%. Moreover, the “fold change (FC)” value in the series with Calvarial osteoblast [8] was 3.

As for `Cc1cc(-c2nc3ccccc3c(=O)n2C)cc2c1OC(N)=C(C#N)C2c1c(C)[nH]c2ccccc12` (configuration not stated), the outcome in the series with Calvarial osteoblast [1] was inactive.

On to `N#CC1=Cc2ccccc2OC1N` (configuration not stated), for which, in the series with Calvarial osteoblast [1], the Activity stood at 18%.

`CCn1c(-c2cc(C)c3c(c2)C(c2c(C)n(CC)c4ccccc24)C(C#N)=C(N)O3)nc2ccccc2c1=O` (configuration not stated): in the series on Calvarial osteoblast [1], the outcome was inactive.

For `CCn1c(-c2cc3c(c(C(C)(C)C)c2)OC(N)=C(C#N)C3c2c(C)[nH]c3ccc(OC)cc23)nc2ccccc2c1=O` (configuration not stated), the Activity in the series with Calvarial osteoblast [1] was 1%.

`Cc1[nH]c2ccccc2c1C1C(C#N)=C(N)Oc2c1cc(-c1nc3ccccc3c(=O)[nH]1)cc2C(C)(C)C` (configuration not stated): the result with Calvarial osteoblast [1] was inactive.

Turning to `CCCc1cc(-c2nc3ccccc3c(=O)n2CC)cc2c1OC(N)=C(C#N)C2c1c(C)[nH]c2ccccc12` (configuration not stated), the Activity with Calvarial osteoblast [1] was determined as 12%.

Regarding `CCn1c(-c2cc(C)c3c(c2)C(c2c(C)n(C)c4ccccc24)C(C#N)=C(N)O3)nc2ccccc2c1=O` (configuration not stated), the Activity in the series with Calvarial osteoblast [1] is 14%.

For `COc1ccc2[nH]c(C)c(C3C(C#N)=C(N)Oc4c3cc(-c3nc5ccccc5c(=O)[nH]3)cc4C(C)(C)C)c2c1` (configuration not stated), the outcome in the series with Calvarial osteoblast [1] was inactive.

`Cc1[nH]c2ccc(Cl)cc2c1C1C(C#N)=C(N)Oc2c1cc(-c1nc3ccccc3c(=O)n1C)cc2C(C)(C)C` (configuration not stated): in the series on Calvarial osteoblast [1], the Activity was determined as 7%.

Take `CCn1c(-c2cc3c(c(C(C)(C)C)c2)OC(N)=C(C#N)C3c2c(C)[nH]c3ccccc23)nc2ccccc2c1=O` (configuration not stated): in the series on Calvarial osteoblast [1], the Activity is given as 9%.

As for `CCc1cc(-c2nc3ccccc3c(=O)[nH]2)cc2c1OC(N)=C(C#N)C2c1c(C)[nH]c2ccccc12` (configuration not stated), the outcome with Calvarial osteoblast [1] was inactive.

For `COc1ccc2[nH]c(C)c(C3C(C#N)=C(N)Oc4c3cc(-c3nc5ccccc5c(=O)n3C)cc4C(C)(C)C)c2c1` (configuration not stated), the Activity entry is “Non-Toxic” with Calvarial osteoblast [2]; 19% in the series on Calvarial osteoblast [1]; 10% in series [9]; “Toxic” in the series with Calvarial osteoblast [6]; 20% in [11]. The outcome in the series on Calvarial osteoblast [5], with Calvarial osteoblast [10] and in the series on Calvarial osteoblast [12] was Active. For the same compound, the outcome in the series on Calvarial osteoblast [7] was inactive.

Take `Cc1[nH]c2ccccc2c1C1C(C#N)=C(N)Oc2ccccc21` (configuration not stated): the result in the series on Calvarial osteoblast [1], in the series with Calvarial osteoblast [13] and with Calvarial osteoblast [14] was inactive.

`COc1ccc2[nH]c(C)c(C3C(C#N)=C(N)Oc4c(C(C)C)cc(-c5nc6ccccc6c(=O)n5C)cc43)c2c1` (configuration not stated): the result in the series with Calvarial osteoblast [1] was inactive.

As for `Cc1cc2ccccc2[nH]1`, the outcome with Calvarial osteoblast [1], in the series on Calvarial osteoblast [13], in the series with Calvarial osteoblast [14] and in the series on Calvarial osteoblast [15] was inactive.

For the compound `CCc1cc(-c2nc3ccccc3c(=O)n2C)cc2c1OC(N)=C(C#N)C2c1c(C)[nH]c2ccc(Cl)cc12` (configuration not stated), the Activity with Calvarial osteoblast [1] came to 1%.

For the compound `Cc1[nH]c2ccc(Cl)cc2c1C1C(C#N)=C(N)Oc2c1cc(-c1nc3ccccc3c(=O)[nH]1)cc2C(C)(C)C` (configuration not stated), in the series with Calvarial osteoblast [1], the Activity came out at 2%.

For `CCc1cc(-c2nc3ccccc3c(=O)n2C)cc2c1OC(N)=C(C#N)C2c1c(C)[nH]c2ccc(OC)cc12` (configuration not stated), in the series with Calvarial osteoblast [1], the Activity came out at 2%.

Take `CCCc1cc(-c2nc3ccccc3c(=O)n2C)cc2c1OC(N)=C(C#N)C2c1c(C)[nH]c2ccccc12` (configuration not stated): the result in the series on Calvarial osteoblast [1] was inactive.

Regarding `CCn1c(-c2cc(C(C)C)c3c(c2)C(c2c(C)[nH]c4ccccc24)C(C#N)=C(N)O3)nc2ccccc2c1=O` (configuration not stated), the Activity in the series with Calvarial osteoblast [1] stood at 6%.

`Cc1[nH]c2ccccc2c1C1C(C#N)=C(N)Oc2c1cc(-c1nc3ccccc3c(=O)n1C)cc2C(C)(C)C` (configuration not stated): in the series with Calvarial osteoblast [1], the result was inactive.

With `Cc1[nH]c2ccc(Cl)cc2c1C1C(C#N)=C(N)Oc2c(C(C)C)cc(-c3nc4ccccc4c(=O)n3C)cc21` (configuration not stated), the Activity with Calvarial osteoblast [1] is on record as 5%.

For the compound `CCn1c(C)nc2ccccc2c1=O`, the Activity in the series on Calvarial osteoblast [1] amounted to 1%. In addition, the outcome in the series on Calvarial osteoblast [13], with Calvarial osteoblast [14] and with Calvarial osteoblast [15] was inactive.

`Cc1[nH]c2ccccc2c1C1C(C#N)=C(N)Oc2c(C(C)C)cc(-c3nc4ccccc4c(=O)n3C)cc21` (configuration not stated): the Activity in the series on Calvarial osteoblast [1] is listed as 1%.

Turning to `COc1ccc2[nH]c(C)c(C3C(C#N)=C(N)Oc4c(C)cc(-c5nc6ccccc6c(=O)n5C)cc43)c2c1` (configuration not stated), the Activity with Calvarial osteoblast [1] was 13%.

For `CCn1c(-c2cc(C)c3c(c2)CC(C#N)=C(N)O3)nc2ccccc2c1=O`, the result with Calvarial osteoblast [1], in the series with Calvarial osteoblast [13] and with Calvarial osteoblast [14] was inactive.

Turning to `CCCc1cc(-c2nc3ccccc3c(=O)n2C)cc2c1OC(N)=C(C#N)C2c1c(C)[nH]c2ccc(Cl)cc12` (configuration not stated), the Activity in the series on Calvarial osteoblast [1] was 12%.

Consider `CCc1cc(-c2nc3ccccc3c(=O)n2CC)cc2c1OC(N)=C(C#N)C2c1c(C)[nH]c2ccccc12` (configuration not stated), for which the Activity entry is given as “Non-Toxic” in the series on Calvarial osteoblast [2], 38% with Calvarial osteoblast [1] and “Toxic” with Calvarial osteoblast [6]. Further, the outcome with Calvarial osteoblast [3] and in the series on Calvarial osteoblast [7] was inactive. Moreover, the outcome in the series with Calvarial osteoblast [4] and in the series with Calvarial osteoblast [5] was Active.
